# Measured values taken from patent US10226534B2, “Semi-solid delivery systems” (REGENTS OF THE UNIVERSITY OF MINNESOTA, priority 2013, dated 2019).
# Assay: Solubilization of Nile Red in water aided by the semi-solid polymer
# Type: physicochemical
# Description: Nile Red (NR) is a hydrophobic molecule that is insoluble in water. 3 mg of NR solid particles suspended in 1 mL of aqueous phosphate buffered saline (PBS) without dissolving. With addition of 10% semi-solid polymer (100 mg), NR is completely solubilized in PBS to 3 mg/mL.
smiles,measurement,setting,value
CCN(CC)c1ccc2nc3c4ccccc4c(=O)cc-3oc2c1 [Nile Red],solubility,"PBS with 10% semi-solid polymer, aqueous with cosolvent or surfactant or cyclodextrin, thermodynamic from solid, with addition of 10% semi-solid polymer (100 mg in 1 mL PBS)",3000 µg/mL
same,Solubility in water,without polymer,insoluble
